Experiments:
[1] = Cold resistance of plasticized polyvinyl chloride film; format: physicochemical; settings: PVC film 1.3 mm, 65 parts plasticizer per 100 parts S-PVC resin
Experimental: Tri(2-ethylhexyl) carboxymethyloxysuccinate was incorporated as a plasticizer in the preparation of polyvinyl chloride film as follows
Using a mixing roller at 170° (7 min.) followed by post-pressing the film at 170° C under contact pressure for 2 minutes, a good plasticized film (1.3 mm) of polyvinyl chloride was obtained. Cold resistance was -39° C compared to -36° C for a control PVC film made using di-2-ethylhexyl phthalate (DOP) as the plasticizer.

[2] = Terg-O-Tometer stain removal test of detergent product containing the detergent solvent, rated visually; parameters: key: 0: complete removal; 1: Very slight remaining stain; 2: Slight remaining stain; 3: Moderate stain removal; 4: Poor stain removal; 5: Very poor stain removal; 6: Equal to original stain; settings: 4.0% detergent solvent in detergent product; 5% solution 15 min, then 20 min wash at 0.144%; 120° F, 180 ppm hardness
Experimental: Four Dacron/cotton (65-35%) Khaki permanent press (Pants weight) test pieces (41/2 inches×6 inches) are first soiled by adding 3 drops of dirty crankcase motor oil on the center of the cloth and the stain allowed to set for one hour. The test cloths are then washed in the Terg-O-Tometerat 120° F, 180 ppm (2:1 Ca^+^+/Mg^+^+) hardness, 90 cycles per minute agitation, with a 5% solution of the detergent product described below (i.e., 50 g/liter) for 15 minutes and then hand squeezed to remove excess water. Finally the cloths are given a 20 minute wash at the standard use level (e.g. 0.144%) under the same conditions followed by a 1 minute rinse. After drying the washed cloths, the degree of stain removal is rated visually according to the scale below:
1 = Very slight remaining stain
2 = Slight remaining stain
3 = Moderate stain removal
5 = Very poor stain removal
6 = Equal to original stain
Ten such formulations utilizing the following "Detergent Solvents" were prepared and evaluated as described above: […]

[3] = under both aerobic and anaerobic conditions; cited from earlier work
[4] = parent compound from which the esters are derived; cited from earlier work
[5] = parent compound from which the esters are derived; cited from earlier work; remark: listed apart in the source

Compound | Visual Grading Code (degree of stain removal) [2] | also measured
CCCCC(CC)COC(=O)COC(CC(=O)OCC(CC)CCCC)C(=O)OCC(CC)CCCC (centres unmarked) [G, tri(2-ethylhexyl) carboxymethyloxysuccinate] | 2 | Cold resistance [1]: -39 °C
CCCCCCOC(=O)COC(CC(=O)OCCCCCC)C(=O)OCCCCCC (centres unmarked) [F, trihexyl carboxymethyloxysuccinate] | 1 | –
O=C(O)COC(CC(=O)O)C(=O)O (centres unmarked) [carboxymethyloxysuccinic acid] | – | biodegradability [3]: completely biodegradable; toxicity [4]: non-toxic; teratogenicity [5]: non-teratogenic
CCCOC(=O)COC(CC(=O)OCCC)C(=O)OCCC (centres unmarked) [D, tripropyl carboxymethyloxysuccinate] | 1 | –
CCOC(=O)COC(CC(=O)OCC)C(=O)OCC (centres unmarked) [C, triethyl carboxymethyloxysuccinate] | 1 | –
CCCCCCCCOC(=O)COC(CC(=O)OCCCCCCCC)C(=O)OCCCCCCCC (centres unmarked) [H, trioctyl carboxymethyloxysuccinate] | 2 | –
CCCCOC(=O)c1ccccc1C(=O)OCCCC [A, dibutyl phthalate, reference compound] | 2 | –
COC(=O)COC(CC(=O)OC)C(=O)OC (centres unmarked) [B, trimethyl carboxymethyloxysuccinate] | 2 | –
CCCCCCCCCCCCOC(=O)COC(CC(=O)OCCCCCCCCCCCC)C(=O)OCCCCCCCCCCCC (centres unmarked) [J, tridodecyl carboxymethyloxysuccinate] | 2 | –
CCCCOC(=O)COC(CC(=O)OCCCC)C(=O)OCCCC (centres unmarked) [E, tributyl carboxymethyloxysuccinate] | 2 | –
CCCCC(CC)COC(=O)c1ccccc1C(=O)OCC(CC)CCCC (centres unmarked) [di-2-ethylhexyl phthalate, reference compound] | – | Cold resistance [1]: -36 °C

Source: patent US3996150A, “Ester compounds” (Lever Brothers Company, priority 1975, dated 1976)
